Legend:
IL-1β = experiment: Inhibition of secretion of IL-1β by LPS-stimulated U937 cells (ELISA); type: cell-based
Procedure: (§1) The impact of cannabidiol, extract of Silybum marianum (fruit without pappus) and combinations of these components on the production of cytokines IL-1β and TNFα by a U937 cell line were investigated.
(§2) U937 cells, were thawed and treated according to the manufacturer's instructions. The cultures were incubated for recovery at 37° C. with 5% CO2 until 70-80% confluency was reached (visual estimation). Then, approx. 0.3×10^6¢/mL (determined by counting) were seeded in 96 well plates containing 200 μL/well of complete growth medium. The cells were incubated at 37° C. with 5% CO2 until 60% confluency was reached (visual estimation, typically—after 48 hr).
(§3) A proper blank control was subtracted from the measurements.
(§4) The cells were incubated for 24 hr. at 37° C. with 5% CO2. After the incubation, the conditioned medium of the different treatment groups was collected under standardized conditions and centrifuged at 250×g for 5 min to remove particulates. Clear supernatants were frozen at −70° C. until cytokines analyses. The secretion levels of IL-1β and TNFα (a major inflammatory marker) were quantified by commercial ELISA.

TNFα = experiment: Inhibition of secretion of TNFα by LPS-stimulated U937 cells (ELISA); type: cell-based
Procedure: as §1, §2, §3, §4

prostaglandin E2 (PGE2) = experiment: Secretion of PGE2 by LPS-stimulated RAW 264.7 cells; type: cell-based; conditions: Mus musculus, RAW264.7, LPS 12.5 ng/ml, each component present at 2.5 μg/ml
Procedure: The impact of cannabidiol, extract of Silybum marianum (fruit without pappus) and extract of Centella asiatica (leaf) on the secretion of prostaglandin E2 (PGE2) was investigated.
RAW 264.7 cells (approx. 2.5×10^5¢/ml, by counting) were seeded in 96 well plates containing 170 μl/well of complete growth medium. The cells were incubated at 37° C. with 5% CO2 for 24 hr. Then, the medium was aspirated and replaced by LPS-containing medium (12.5 ng/ml) without or with the test components. In addition, naïve cells, vehicle-treated cells, Stimulated Control, and Stimulated Vehicle Control served as negative controls. Dexamethasone served as a positive control for anti-inflammatory assay. A Blank control group was included in the assay.
The spent media from all test groups were collected under standardized conditions and centrifuged at 250 g for 5 min to remove particulates. Clear supernatants were frozen at −70° C. until analysis. The secretion levels of PGE2 (an important inflammatory marker) were determined.

human sebocytes = conditions: cultured human sebocytes and human skin organ culture; cited from earlier work
[1] = Homo sapiens, U-937, 1 μg/mL lipopolysaccharides, 24 hr, each component present at 10 μg/ml
[2] = LPS-stimulated, summary of Table 2

C=C(C)[C@@H]1CCC(C)=C[C@H]1c1c(O)cc(CCCCC)cc1O [Sample 1, Cannabidiol]
inhibition at 10 µg/mL (IL-1β; [1]): 28.4% | effect on secretion of IL-1β (in words) (IL-1β; [2]): attenuates secretion | inhibition at 10 µg/mL (TNFα; [1]): 48% | effect on secretion of TNFα (in words) (TNFα; [2]): attenuates secretion | inhibition at 2.5 µg/mL (prostaglandin E2 (PGE2)): 24% | effect on lipogenic actions of arachidonic acid, linoleic acid and testosterone (human sebocytes): inhibited the lipogenic actions of various compounds | effect on sebocyte proliferation (human sebocytes): suppressed sebocyte proliferation
